According to PubChem BioAssay (NCI):
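How tested: cells in 96-well plates exposed to compound for 48 hours at five concentrations. GI50: concentration for 50% inhibition of growth. TGI denotes the concentration required for complete inhibition of growth.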

Tests used:
Experiment in all cases: DTP human tumour cell line panel, 48 h
[1] = system: M14 melanoma
[2] = system: MCF7 breast
[3] = system: SR leukemia
[4] = system: MDA-MB-435
[5] = system: IGROV1 ovarian
[6] = system: HOP-62 NSCLC
[7] = system: NCI-H522 lung
[8] = system: HCC-2998 colon
[9] = system: NCI-H23 lung
[10] = system: KM12 colon
[11] = system: TK-10 renal
[12] = system: U251 CNS
[13] = system: SN12C renal
[14] = system: RPMI-8226 leukemia
[15] = system: ACHN renal
[16] = system: OVCAR-3 ovarian
[17] = system: COLO 205 colon
[18] = system: UACC-62 melanoma
[19] = system: HL-60(TB) leukemia
[20] = system: SK-MEL-28 melanoma
[21] = system: HOP-92 NSCLC
[22] = system: NCI-H460 lung
[23] = system: MOLT-4 leukemia
[24] = system: CAKI-1 renal
[25] = system: UACC-257 melanoma
[26] = system: SF-295 CNS
[27] = system: MALME-3M melanoma
[28] = system: SF-539 CNS

## O=C1c2ccc3c4c(ccc(c24)C(=O)N1CCCNCc1ccccc1Cl)C(=O)N(CCCNCc1ccccc1Cl)C3=O
[1]
  GI50: 200 nM
  TGI: 685 nM
[2]
  GI50: 100 nM
  TGI: 231 nM
[3]
  GI50: 151 nM
  TGI: 6680 nM
[4]
  GI50: 120 nM
  TGI: 332 nM
[5]
  GI50: 275 nM
  TGI: 1630 nM
[6]
  GI50: 277 nM
  TGI: 1020 nM
[7]
  GI50: 293 nM
  TGI: 974 nM
[8]
  GI50: 191 nM
  TGI: 651 nM
[9]
  GI50: 217 nM
  TGI: 860 nM
[10]
  GI50: 170 nM
  TGI: 637 nM
[11]
  GI50: 179 nM
  TGI: 724 nM
[12]
  GI50: 218 nM
  TGI: 910 nM
[13]
  GI50: 99.5 nM
  TGI: 206 nM
[14]
  GI50: 390 nM
  TGI: 1860 nM
[15]
  GI50: 206 nM
  TGI: 859 nM
[16]
  GI50: 132 nM
  TGI: 345 nM
[17]
  GI50: 89.6 nM
  TGI: 166 nM
[18]
  GI50: 671 nM
  TGI: 1430 nM
[19]
  GI50: 904 nM
  TGI: 2110 nM
[20]
  GI50: 776 nM
  TGI: 1480 nM
[21]
  GI50: 728 nM
  TGI: 2370 nM
[22]
  GI50: 212 nM
  TGI: 817 nM
[23]
  GI50: 168 nM
  TGI: 722 nM
[24]
  GI50: 317 nM
  TGI: 1460 nM
[25]
  GI50: 125 nM
  TGI: 334 nM
[26]
  GI50: 494 nM
  TGI: 1220 nM
[27]
  GI50: 315 nM
  TGI: 1050 nM
[28]
  GI50: 669 nM
  TGI: 1380 nM
